Assay results from US5428059A, “Benzopyran derivatives and an anti-allergic agent possessing the same as the active ingredient” (Dainippon Ink & Chemicals, Inc., priority 1991, dated 1995).

System: Hartley-type male guinea pigs
Assay: Guinea Pig Homogeneous Skin Passive Anaphylaxis Assay (PCA reaction)
Format: in vivo, guinea pig (Hartley-type)
Details: Cavia porcellus, 10 mg/kg oral, 48 h after sensitization, read-out: Allergic reaction inhibitory index (%)
Procedure: In order to confirm the anti-allergic action of the compounds according to the present invention, as an anti-allergic action confirmation assay, the widely used Guinea Pig Homogeneous Skin Passive Anaphylaxis Assay (PCA Reaction Assay; Passive Cutaneous Anaphylaxis Reaction Assay) was carried out. The assay method used will be explained in the following.
Assay method: Hartley-type male guinea pigs (body weight: 250~300 g) were sensitized by the following procedure; a mixture of 2 μg of egg albumin (OVA) and 5 μg of aluminium hydroxide gel was administered intraperitoneally 3 times every 2 weeks, and the anti-OVA blood serum was manufactured.
The anti-blood serum obtained was then diluted 120 times using physiological saline solution, and then to groups each containing 6 shaved guinea pigs, was injected at a quantity of 0.05 ml respectively, into two positions in the back portion, inside the skin of each animal.
After the 48th hour of sensitization, 10 mg/kg of the test substance to be tested was orally administered, following which a mixture of 2 mg OVA and 5 mg of Evans Blue was administered by intraveneous injection into the hind leg, triggering the anaphylaxis reaction. As the positive control, Tranilast, a well known anti-allergic agent, was used, and in the same manner as the substances to be tested, 100 mg/kg of it was orally administered after the 48th hour of sensitization.
30 minutes after triggering the reaction, the animals were bled to death under ether anesthesia, and their back portion skins were peeled off. The long and short diameters of pigment leakage spots on the interior surface of the skins were measured, and the product of these (mm^2) were entered into formula 1 as "pigment leakage amount", from which the allergic reaction inhibitory index wins calculated. [formula]
I: Allergic reaction inhibitory index (%)
A: Pigment leakage amount of solvent control group
B: Pigment leakage amount of test substance group
C: Pigment leakage amount of […]

Row | Structure (SMILES) | inhibition in vivo at 10 mg/kg [%]
1 | CCCCCCCCCCOc1ccc2c(O)c(O)c(=O)oc2c1 [Compound 59, 3,4-(dihydroxy)-7-(decyloxy)-2H-1-benzopyran-2-one] | 47
2 | CCCCCCCCCCOc1cccc2oc(=O)c(OC/C=C(\C)CCC=C(C)C)c(OC/C=C(\C)CCC=C(C)C)c12 [Compound 243, 3,4-(digeranyloxy)-5-(decyloxy)-2H-1-benzopyran-2-one] | 31
3 | COc1c(OC/C=C(\C)CCC=C(C)C)c2ccc(OC(C)C)cc2oc1=O [Compound 56, 3-(methoxy)-4-(geranyloxy)-7-(isopropoxy)-2H-1-benzopyran-2-one] | 31
4 | CC(=O)Oc1c(OC/C=C(\C)CCC=C(C)C)c(=O)oc2cccc(OC/C=C(\C)CCC=C(C)C)c12 [Compound 255, 3,5-(digeranyloxy)-4-(acetoxy)-2H-1-benzopyran-2-one] | 33
5 | COc1c(O)c2cccc(OC/C=C(\C)CCC=C(C)C)c2oc1=O [Compound 162, 3-(methoxy)-4-hydroxy-8-(geranyloxy)-2H-1-benzopyran-2-one] | 31
6 | CC(=O)Oc1c(OC(C)=O)c2cccc(OC(C)C)c2oc1=O [Compound 132, 3,4-(diacetoxy)-8-(isopropoxy)-2H-1-benzopyran-2-one] | 32
7 | CC(C)Oc1c(O)c(=O)oc2c(OC(C)C)cccc12 [Compound 134, 3-hydroxy-4,8-(disopropoxy)-2H-1-benzopyran-2-one] | 30
8 | CC(C)=CCC/C(C)=C/COc1ccc2c(OC(C)C)c(OC(=O)c3ccccc3)c(=O)oc2c1 [Compound 81, 3-(benzoyloxy)-4-(isopropoxy)-7-(geranyloxy)-2H-1-benzopyran-2-one] | 31
9 | CCCCCCCCCCOc1ccc2c(OC)c(OC(C)C)c(=O)oc2c1 [Compound 66, 3-(isopropoxy)-4-(methoxy)-7-(decyloxy)-2H-1-benzopyran-2-one] | 30
10 | CCCCCCCCCCOc1c(O)c(=O)oc2ccc(O)cc12 [Compound 268, 3,6-(dihydroxy)-4-(decyloxy)-2H-1-benzopyran-2-one] | 33
11 | COc1cccc2c(OC(C)C)c(O)c(=O)oc12 [Compound 116, 3-hydroxy-4-(isopropoxy)-8-(methoxy).2H-1-benzopyran-2-one] | 34
12 | COc1c(OC/C=C(\C)CCC=C(C)C)c(=O)oc2cccc(OC/C=C(\C)CCC=C(C)C)c12 [Compound 257, 3,5-(digeranyloxy)-4-(methoxy)-2H-1-benzopyran-2-one] | 31
13 | COc1ccc2c(OC)c(O)c(=O)oc2c1 [Compound 33, 3-hydroxy-4,7-(dimethoxy)-2H-1-benzopyran-2-one] | 33
14 | CC(=O)Oc1c(OC(=O)c2ccccc2)c(=O)oc2cccc(O)c12 [Compound 180, 3-(benzoyloxy)-4-(acetoxy)-5-hydroxy-2H-1-benzopyran-2-one] | 30
15 | CC(C)Oc1ccc2c(O)c(O)c(=O)oc2c1 [Compound 45, 3,4-dihydroxy-7-(isopropoxy)-2H-1-benzopyran-2-one] | 58
16 | COc1ccc2c(OC/C=C(\C)CCC=C(C)C)c(OC)c(=O)oc2c1 [Compound 42, 3,7-(dimethoxy)-4-(geranyloxy)-2H-1-benzopyran-2-one] | 33
17 | CC(=O)Oc1c(O)c(=O)oc2cc(OC(C)C)ccc12 [Compound 46, 3-hydroxy-4-(acetoxy)-7-(isopropoxy)-2H-1-benzopyran-2-one] | 34
18 | CC(C)=CCC/C(C)=C/COc1c(O)c2cccc(O)c2oc1=O [Compound 102, 3-(geranyloxy)-4,8-(dihydroxy)-2H-1-benzopyran-2-one] | 35
19 | CCCCCCCCCCOc1c(OC)c2cccc(OC)c2oc1=O [Compound 117, 3-(decyloxy)-4,8-(dimethoxy)-2H-1-benzopyran-2-one] | 32
20 | CC(=O)Oc1c(O)c(=O)oc2c(OC(C)C)cccc12 [Compound 131, 3-hydroxy-4-(acetoxy)-8-(isopropoxy)-2H-1-benzopyran-2-one] | 31
21 | CCCCCCCCCCOc1cccc2oc(=O)c(OC(C)C)c(O)c12 [Compound 233, 3-(isopropoxy)-4-hydroxy-5-(decyloxy)-2H-1-benzopyran-2-one] | 39
22 | COc1c(OC/C=C(\C)CCC=C(C)C)c(=O)oc2cccc(O)c12 [Compound 191, 3-(geranyloxy)-4-(methoxy)-5-hydroxy-2H-1-benzopyran-2-one] | 30

Row | Structure (SMILES) | inhibition in vivo at 10 mg/kg [%]
23 | COc1cccc2c(OC/C=C(\C)CCC=C(C)C)c(O)c(=O)oc12 [Compound 121, 3-hydroxy-4-(geranyloxy)-8-(methoxy)-2H-1-benzopyran-2-one] | 30
24 | CCCCCCCCCCOc1cccc2c(OC(=O)c3ccccc3)c(OC(C)=O)c(=O)oc12 [Compound 146, 3-(acetoxy)-4-(benzoyloxy)-8-(decyloxy)-2H-1-benzopyran-2-one] | 30
25 | CC(=O)Oc1c(O)c(=O)oc2cccc(OC(C)C)c12 [Compound 212, 3-hydroxy-4-(acetoxy)-5-(isopropoxy)-2H-1-benzopyran-2-one] | 37
26 | CCCCCCCCCCOc1c(O)c(=O)oc2ccc(OC)cc12 [Compound 276, 3-(hydroxy)-4-(decyloxy)-6-(methoxy)-2H-1-benzopyran-2-one] | 34
27 | CCCCCCCCCCOc1cccc2c(OC(C)=O)c(OC/C=C(\C)CCC=C(C)C)c(=O)oc12 [Compound 153, 3-(geranyloxy)-4-(acetoxy)-8-(decyloxy)-2H-1-benzopyran-2-one] | 30
28 | CCCCCCCCCCOc1c(OC(=O)c2ccccc2)c2c(OC(C)C)cccc2oc1=O [Compound 218, 3-(decyloxy)-4-(benzoyloxy)-5-(isopropoxy)-2H-1-benzopyran-2-one] | 31
29 | COc1c(OC(C)=O)c(=O)oc2cc(OC(C)C)ccc12 [Compound 51, 3-(acetoxy)-4-(methoxy)-7-(isopropoxy)-2H-1-benzopyran-2-one] | 30
30 | CCCCOc1cccc2c(O)c(O)c(=O)oc12 [Compound 128, 3,4-(dihydroxy)-8-(butyloxy)-2H-1-benzopyran-2-one] | 40
31 | CCCCCCCCCCOc1ccc2c(OC(C)=O)c(O)c(=O)oc2c1 [Compound 60, 3-hydroxy-4-(acetoxy)-7-(decyloxy)-2H-1-benzopyran-2-one] | 35
32 | CC(C)=CCC/C(C)=C/COc1cccc2oc(=O)c(O)c(OC/C=C(\C)CCC=C(C)C)c12 [Compound 254, 3-hydroxy-4,5-(digeranyloxy)-2H-1-benzopyran-2-one] | 30
33 | CCCCCCCCCCOc1cccc2oc(=O)c(O)c(OCCCC)c12 [Compound 234, 3-hydroxy-4-(butoxy)-5-(decyloxy)-2H-1-benzopyran-2-one] | 33
34 | CCCCCCCCCCOc1c(O)c2cc(OC)ccc2oc1=O [Compound 274] | 35
35 | CC(C)=CCC/C(C)=C/COc1c(OC(C)C)c(=O)oc2c(OC/C=C(\C)CCC=C(C)C)cccc12 [Compound 172, 3-(isopropoxy)-4,8-(digeranyloxy)-2H-1-benzopyran-2-one] | 30
36 | CC(=O)Oc1c(OC(=O)c2ccccc2)c(=O)oc2cccc(OC/C=C(\C)CCC=C(C)C)c12 [Compound 247, 3-(benzoyloxy)-4-(acetoxy)-5-(geranyloxy)-2H-1-benzopyran-2-one] | 34
37 | CC(C)=CCC/C(C)=C/COc1c(O)c(=O)oc2cccc(O)c12 [Compound 188, 3,5-(dihydroxy)-4-(geranyloxy)-2H-1-benzopyran-2-one] | 32
38 | CCCCCCCCCCOc1ccc2c(OC(C)=O)c(OC(C)=O)c(=O)oc2c1 [Compound 61, 3,4-(diacetoxy)-7-(decyloxy)-2H-1-benzopyran-2-one] | 30
39 | CC(C)=CCC/C(C)=C/COc1ccc2c(OC/C=C(\C)CCC=C(C)C)c(O)c(=O)oc2c1 [Compound 84, 3-hydroxy-4,7-(digeranyloxy)-2H-1-benzopyran-2-one] | 30
40 | CC(C)Oc1cccc2c(O)c(O)c(=O)oc12 [Compound 130, 3,4-(dihydroxy)-8-(isopropoxy)-2H-1-benzopyran-2-one] | 39
41 | COc1ccc2c(OC(=O)c3ccccc3)c(OC/C=C(\C)CCC=C(C)C)c(=O)oc2c1 [Compound 39, 3-(geranyloxy)-4-(benzoyloxy)-7-(methoxy)-2H-1-benzopyran-2-one] | 30
42 | CC(C)=CCC/C(C)=C/COc1c(O)c(=O)oc2c(OC(C)C)cccc12 [Compound 139, 3-hydroxy-4-(geranyloxy)-8-(isopropoxy)-2H-1-benzopyran-2-one] | 33
43 | CCCCCCCCCCOc1ccc2c(O)c(OC/C=C(\C)CCC=C(C)C)c(=O)oc2c1 [Compound 67, 3-(geranyloxy)-4-hydroxy-7-(decyloxy)-2H-1-benzopyran-2-one] | 39
